Experimental data from patent publication US7238813B2, “Chemical compounds” (Smithkline Beecham Corporation, priority 2000, dated 2007).
Structures can show the parent of a compound that is named as a salt.

Tests used:
[1] = target: T1, TIE2 intracellular domain/c-fms extracellular domain (TIE2/c-fms) chimeric protein expressing mouse 3T3 cells (Homo sapiens, UniProt Q02763); test: TIE-2 autophosphorylation assay (TIE2-C), ELISA; format: cell-based; conditions: TIE2/c-fms 3T3 cells, MCSF activation
T1 construct: a TIE2 intracellular domain/c-fms extracellular domain (TIE2/c-fms) chimeric protein; expressed in transfected cells; host or cells: mouse 3T3 cells
T1 sequence (Q02763 770-1124 limits assumed, change not shown): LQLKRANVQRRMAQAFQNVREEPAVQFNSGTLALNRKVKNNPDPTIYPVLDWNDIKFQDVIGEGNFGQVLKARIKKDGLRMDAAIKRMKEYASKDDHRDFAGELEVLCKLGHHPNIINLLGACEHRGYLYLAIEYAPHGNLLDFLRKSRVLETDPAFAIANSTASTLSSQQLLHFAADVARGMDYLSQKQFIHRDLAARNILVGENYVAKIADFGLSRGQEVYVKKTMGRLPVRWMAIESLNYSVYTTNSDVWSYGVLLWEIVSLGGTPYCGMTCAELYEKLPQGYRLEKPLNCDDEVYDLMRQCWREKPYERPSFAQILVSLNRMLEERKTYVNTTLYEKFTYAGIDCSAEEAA
Method in brief: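 Mouse 3T3 cells expressing TIE2 intracellular/c-fms extracellular chimera treated with compound for 1 hr in serum-free DMEM (0.1% DMSO), then stimulated with MCSF. Lysates captured on anti-c-fms plates overnight at 4 °C; phosphotyrosine detected by biotin-PT66/HRP-streptavidin, OD450. IC50 by nonlinear regression, reported as pIC50.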

GST-VEGFR2 = target: T2, GST-VEGFR2 (Homo sapiens, UniProt P35968); test: VEGF-R2 enzyme assay (VEGF-E), LANCE method; format: biochemical; conditions: 75 μM ATP
T2 construct: GST-VEGFR2, baculovirus expressed recombinant constructs of the intracellular domains of human TIE2 tagged by GST; made in house
T2 sequence (P35968 786-1356 limits assumed): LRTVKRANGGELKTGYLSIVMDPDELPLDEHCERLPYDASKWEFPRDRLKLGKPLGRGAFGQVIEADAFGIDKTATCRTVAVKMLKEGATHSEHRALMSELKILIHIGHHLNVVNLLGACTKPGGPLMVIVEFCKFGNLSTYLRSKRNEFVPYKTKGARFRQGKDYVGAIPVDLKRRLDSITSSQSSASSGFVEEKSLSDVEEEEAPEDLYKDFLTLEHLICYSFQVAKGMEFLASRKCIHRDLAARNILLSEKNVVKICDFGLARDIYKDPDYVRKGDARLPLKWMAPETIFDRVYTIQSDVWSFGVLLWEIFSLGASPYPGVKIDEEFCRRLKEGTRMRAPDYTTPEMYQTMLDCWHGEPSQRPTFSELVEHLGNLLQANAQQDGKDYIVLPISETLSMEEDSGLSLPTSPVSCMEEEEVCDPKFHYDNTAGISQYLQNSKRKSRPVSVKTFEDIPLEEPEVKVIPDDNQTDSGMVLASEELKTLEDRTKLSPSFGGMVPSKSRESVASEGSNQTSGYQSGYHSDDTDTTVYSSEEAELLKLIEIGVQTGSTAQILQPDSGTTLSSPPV

[2] = test system: Human umbilical cord endothelial cells (HUVEC); test: VEGF-driven cellular proliferation assay: BrdU incorporation assay (VEGF-C); format: cell-based; parameters: key to VEGF-C: + = pIC50 of 5.0–6.0; ++ = pIC50 of 6.0–7.0; +++ = pIC50 of > 7.0; − = a negative or inconclusive result; conditions: for IC50: Homo sapiens
Procedure: VFGF-driven Cellular Proliferation Assay: BrdU Incorporation Assay (VEGF-C)
Human umbilical cord endothelial cells (HUVEC, Clonetics, CC2519) were passaged in Type I collagen-coated 100-mm petridishes in EGM-MV medium (Clonetics, CC3125) at 37° C. in a humidified 5% CO2, 95% air incubator. (HUVEC passaged more than 6 times in vitro were discarded and not subjected to assaying.) The cells were harvested using trypsin/EDTA, counted using a haemocytometer and plated at 5000 cells/well in a Type I-collagen coated 96-well plate (Becton Dickinson, 354407) in M199 medium (Gibco BRL, 12340-030) containing 5% FBS (Hyclone, A 1115-L) and gentamicin (at 50 μg/ml, Gibco BRL). After incubation overnight at 37° C., the media were replaced with 100 μl of M199 serum-free medium containing compounds at various concentrations with 0.6% DMSO and gentamicin. The compounds were diluted in serum-free M199 medium from 10 mM stock solutions prepared in 100% DMSO. After a 30 min incubation at 37° C., the cells were fed with 100 μl of serum-free M199 medium containing gentamicin, 0.2% culture-grade bovine serum albumin (BSA, Sigma A1993) and 20 ng/ml of VEGF (R&D systems, 293-VE) or 0.6 ng/ml of basic FGF (R&D systems, 233-FB), and cultured at 37° C. for another 24 h. The cells were pulsed with bromodeoxyuridine (BrdU at 10 μM in serum-free M199) at 37° C. for an additional 24 h. The incorporation of BrdU into the proliferating HUVEC were analyzed using BrdU Cell Proliferation ELISA (Roche Molecular Biochemicals, 1647229) according to the manufacturer's protocols. The optical density at 450 nm was measured with a multilabel counter (ARVO SX, Wallac). The percent inhibition of cell growth was calculated relative to blank control wells. The concentration of test compound that inhibits 50% of cell growth (IC50) was interpolated using nonlinear regression (Levernberg-Marquardt) and the equation, y=Vmax (1−x/(K+x))+Y2, where “K” was equal to the IC50. The IC50, values were converted to pIC50 values, i.e., −log IC50 in Molar concentration.

[3] = target: T3, GST-TIE2 (intracellular domains of human TIE2) (Homo sapiens, UniProt Q02763); test: TIE-2 enzyme assay (TIE2-E), LANCE method; format: biochemical; conditions: 80 uM ATP
T3 construct: made in house
T3 sequence (Q02763 762-1104): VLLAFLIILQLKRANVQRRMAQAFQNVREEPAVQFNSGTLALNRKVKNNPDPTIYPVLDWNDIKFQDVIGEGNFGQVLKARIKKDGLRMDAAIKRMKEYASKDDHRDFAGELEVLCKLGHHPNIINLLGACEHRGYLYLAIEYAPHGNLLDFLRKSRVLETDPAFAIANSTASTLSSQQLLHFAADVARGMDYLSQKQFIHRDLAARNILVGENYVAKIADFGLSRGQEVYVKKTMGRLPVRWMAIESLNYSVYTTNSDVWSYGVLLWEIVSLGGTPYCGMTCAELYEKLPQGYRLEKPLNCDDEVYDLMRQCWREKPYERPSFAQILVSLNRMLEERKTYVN
Method in brief: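 Baculovirus GST-TIE2 (human intracellular domain, aa 762–1104) preactivated 30 min at RT with 2 mM ATP, then reacted 30 min at RT with 1 μM D1-15 peptide, 80 uM ATP, 10 mM MgCl2, pH 7.4, 2.4% DMSO. EDTA-stopped; LANCE Eu-anti-pTyr/streptavidin-APC read-out. IC50 by nonlinear regression, reported as pIC50.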

| IC50 [1] [nM] | IC50 (GST-VEGFR2) [nM] | IC50 [3] [nM] | Structure (SMILES) | IC50 [2] [nM] | VEGF-C [2] |
| --- | --- | --- | --- | --- | --- |
| < 100 | < 100 | < 100 | COC(=O)Nc1nc2ccc(Sc3ccc(NC(=O)Nc4cccc(C(F)(F)F)c4)cc3)cc2[nH]1 [Example 2, Methyl N-(5-(4-((3-(trifluoromethyl)phenyl)aminocarbonylamino)phenylthio)-1H-benzimidazol-2-yl)carbamate] | 1000 to 10000 |  |
| < 100 | < 100 | < 100 | COC(=O)Nc1cn2cc(Oc3ccc(NC(=O)Nc4cc(C(F)(F)F)ccc4F)cc3)ccc2n1 [Example 68, Methyl N-(5-(4-((2-fluoro-5-(trifluoromethyl)phenyl)aminocarbonylamino)phenoxy)-3a-aza-2-indolyl)carbamate] | < 100 |  |
| 1000 to 10000 | 100 to 1000 | < 100 | COC(=O)Nc1nc2ccc(Sc3ccc(NC(=O)Nc4cccc(Br)c4)cc3)cc2[nH]1 [Example 4, Methyl N-(5-(4-((3-bromophenyl)aminocarbonylamino)phenylthio)-1H-benzimidazol-2-yl)carbamate] |  | − |
| < 100 | < 100 | < 100 | COC(=O)Nc1nc2cc(Oc3ccc(NC(=O)Nc4cc(Cl)ccc4Cl)cc3)ccc2[nH]1 [Example 45, Methyl N-(5-(4-((2,5-dichlorophenyl)aminocarbonylamino)phenoxy)-1H-benzimidazol-2-yl)carbamate] |  | − |
| < 100 | < 100 | < 100 | COC(=O)Nc1nc2cc(Oc3ccc(NC(=O)Nc4cc(OC)ccc4OC)cc3)ccc2[nH]1 [Example 42, Methyl N-(5-(4-((2,5-dimethoxyphenyl)aminocarbonylamino)phenoxy)-1H-benzimidazol-2-yl)carbamate] | 100 to 1000 |  |
| < 100 | < 100 | < 100 | O=C(Nc1ccc(Oc2ccc3[nH]c(NC(=O)OCc4ccccc4)nc3c2)cc1)Nc1cc(C(F)(F)F)ccc1F [Example 81, Benzyl N-(5-(4-((2-fluoro-5-(trifluoromethyl)phenyl)aminocarbonylamino)phenoxy)-1H-benzimidazol-2-yl)carbamate] |  | − |
| < 100 | < 100 | < 100 | COC(=O)Nc1nc2cc(Oc3ccc(NC(=O)Nc4cccc(C(F)(F)F)c4)cn3)ccc2[nH]1 [Example 38] |  | − |
| < 100 | < 100 | < 100 | COCC(=O)Nc1nc2cc(Oc3ccc(NC(=O)Nc4cc(C(F)(F)F)ccc4F)cc3)ccc2[nH]1 [Example 31, N-(5-(4-((2-Fluoro-5-(trifluoromethyl)phenyl)aminocarbonylamino)phenoxy)-1H-benzimidazol-2-yl)-2-methoxyacetamide] | < 100 |  |
| 100 to 1000 | < 100 | < 100 | O=C(Nc1ccc(Oc2ccc3[nH]c(NC(=O)C4CCCC4)nc3c2)cc1)Nc1cc(C(F)(F)F)ccc1F [Example 26, N-(5-(4-((2-Fluoro-5-(trifluoromethyl)phenyl)aminocarbonylamino)phenoxy)-1H-benzimidazol-2-yl)cyclopentamide] | 100 to 1000 |  |
| 100 to 1000 | < 100 | < 100 | COC(=O)Nc1nc2ccc(Oc3ccc(NC(=O)Nc4cc(C(F)(F)F)ccc4F)cc3)cc2n1CCN(C)C [Example 70, Methyl N-(6-(4-((2-fluoro-5-(trifluoromethyl)phenyl)aminocarbonylamino)phenoxy)-1-(2-(dimethylamino)ethyl)-1H-benzimidazol-2-yl)carbamate] | 1000 to 10000 |  |
| < 100 | < 100 | < 100 | COC(=O)Nc1nc2cc(Oc3ccc(NC(=O)Nc4cc(C(F)(F)F)ccc4Cl)cn3)ccc2[nH]1 [Example 111, Methyl-N-(5-(5-((2-chloro-5-(trifluoromethyl)phenyl)aminocarbonylamino)-2-pyridyloxy)-1H-benzimidazol-2-yl)carbamate] |  | − |
| < 100 | < 100 | < 100 | COC(=O)Nc1nc2cc(Oc3ccc(NC(=O)Nc4cc(F)cc(C(F)(F)F)c4)cc3)ccc2[nH]1 [Example 50, Methyl N-(5-(4-((3-fluoro-5-(trifluoromethyl)phenyl)aminocarbonylamino)phenoxy)-1H-benzimidazol-2-yl)carbamate] | 100 to 1000 |  |
| 100 to 1000 | < 100 | 100 to 1000 | COC(=O)Nc1nc2cc(Oc3ccc(NC(=O)Nc4cccc(C#N)c4)cc3)ccc2[nH]1 [Example 49] |  | − |
| < 100 | < 100 | < 100 | O=C(Nc1ccc(Oc2ccc3[nH]c(NC(=O)C4CCCO4)nc3c2)cc1)Nc1cc(C(F)(F)F)ccc1F (stereo not drawn) [Example 94] | 1000 to 10000 |  |
| 1000 to 10000 | < 100 | < 100 | Nc1nc2ccc(Oc3ccc(NC(=O)Nc4cc(C(F)(F)F)ccc4F)cc3)cc2[nH]1 [Example 22, 2-Amino-5-(4-((2-fluoro-5-(trifluoromethyl)phenyl)aminocarbonylamino)phenoxy)-1H-benzimidazole.] | 1000 to 10000 |  |
| < 100 | < 100 | < 100 | O=C(Cn1nnc(N2CCCC2)n1)Nc1nc2cc(Oc3ccc(NC(=O)Nc4cc(C(F)(F)F)ccc4F)cc3)ccc2[nH]1 [Example 96, N-(5-(4-((2-Fluoro-5-(trifluoromethyl)phenyl)aminocarbonylamino)phenoxy)-1H-benzimidazol-2-yl)(5-(1-pyrrolidino)tetrazol-2-yl)acetamide] | 100 to 1000 |  |
| < 100 | < 100 | < 100 | COC(=O)Nc1nc2cc(Oc3ccc(NC(=O)Nc4cc([N+](=O)[O-])ccc4F)cc3)ccc2[nH]1 [Example 46, Methyl N-(5-(4-((2-fluoro-5-nitrophenyl)aminocarbonylamino)phenoxy)-1H-benzimidazol-2-yl)carbamate] |  | − |
| < 100 | < 100 | < 100 | O=C(Nc1ccc(Oc2ccc3[nH]c(NC(=O)c4c[nH]cn4)nc3c2)cc1)Nc1cc(C(F)(F)F)ccc1F [Example 98, N-(5-(4-((2-Fluoro-5-(trifluoromethyl)phenyl)aminocarbonylamino)phenoxy)-1H-benzimidazol-2-yl)(1H-imidazole-4-carboxamide)dihydrochloride] | 100 to 1000 |  |
| < 100 | < 100 | < 100 | O=C1CCn2c(nc3ccc(Oc4ccc(NC(=O)Nc5cc(C(F)(F)F)ccc5F)cc4)nc32)N1 [Example 77] | 100 to 1000 |  |
| < 100 | < 100 | < 100 | O=C(Nc1ccc(Oc2ccc3[nH]c(NC(=O)c4ccc5[nH]cnc5c4)nc3c2)cc1)Nc1cc(C(F)(F)F)ccc1F [Example 89, N-(5-(4-((2-Fluoro-5-(trifluoromethyl)phenyl)aminocarbonylamino)phenoxy)-1H-benzimidazol-2-yl)-5-benzimidazolecarboxamide] | 100 to 1000 |  |

| Structure (SMILES) | IC50 [1] [nM] | IC50 (GST-VEGFR2) [nM] | IC50 [3] [nM] | IC50 [2] [nM] | VEGF-C [2] |
| --- | --- | --- | --- | --- | --- |
| CC(C)(C)OC(=O)NCC(=O)Nc1nc2cc(Oc3ccc(NC(=O)Nc4cc(C(F)(F)F)ccc4F)cc3)ccc2[nH]1 [Example 35, N-(5-(4-((2-Fluoro-5-(trifluoromethyl)phenyl)aminocarbonylamino)phenoxy)-1H-benzimidazol-2-yl)-2-(N-(t-butoxycarbony)amino)acetamide] | 100 to 1000 | < 100 | < 100 | 1000 to 10000 |  |
